According to patent US20240287054A1, “COMPOUNDS THAT BIND NON-CANONICAL G-QUADRUPLEX STRUCTURES AND METHODS OF MAKING AND USING THE SAME” (The U.S.A., as Represented by the Secretary, Department of …, priority 2021, published 2024):
One block for each molecule: values may come before it.

Key:
BCL2 HP-G4 = test: FIA binding test with BCL2 HP-G4 (parallel structure)
Experimental: (§1) In this study, FIA was used for validating the bindings between certain bivalent and MYCN G4 oligos. To measure the binding affinity, a solution of each compound was prepared in triplicate in a 96 well-plate (Costar, black side clear bottom), resulting in a final concentration of 100 nM (5% final DMSO in the working solution). Unlabeled MYCN G4 DNA was folded based on the above-mentioned annealing method, then added into the well plate resulting in different concentrations by a seral dilution. The plate was incubated at room temperature for 30 min, followed by centrifuging at 500 rpm for 2 minutes. The fluorescence intensity was then quantitatively recorded by a Synergy Mx microplate reader (BioTek) at Ex 340 nm/Em 500 nm. The fluorescence intensities were then normalized, and the binding affinity was calculated by fitting the curve using one-site total model in GraphPad Prism 8.3.1 software.
(§2) In addition to the DMS-footprinting study, the bivalent binding mode of compound B33 toward MYCN hairpin-G4 was also investigated by comparing HP-G4s with different folding types. Four reported HP-G4s with parallel structure (BCL2), (3+1) hybrid structure (HIV and PIM1-form1), and (2+2) chair-type structure (PIM1-form2) were examined by FIA binding test using compound B33 (FIGS. 41A, 41B, 42A, 42B, 43A, 43B, 44A, and 44B). […]

PIM1-form2 HP-G4 = test: FIA binding test with PIM1-form2 HP-G4 ((2+2) chair-type structure); conditions: read-out: binding affinity, PIM1-form2 HP-G4
Experimental: as §1, §2

MYCN hairpin-G4 DNA = test: FIA using compound fluorescence (Ex 340/Em 500 nm), titration with unlabeled MYCN G4 DNA; type: binding, human; conditions: 100 nM compound titrated with folded unlabeled MYCN G4
Method in brief: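 Compound at 100 nM final (5% DMSO) was titrated with serially diluted, pre-annealed unlabeled MYCN G4 DNA and incubated 30 min at room temperature. Intrinsic compound fluorescence (Ex 340/Em 500 nm) was normalised, and affinity was fitted to a one-site total model.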

MYCN G4 DNA with 10×tRNA = test: Fluorescence titration of MYCN G4 in presence/absence of excess tRNA; type: binding, human; conditions: presence/absence of 10×tRNA
Experimental: 2-Aminopurine (2-AP) fluorescence titration. Fluorescence titrations based on 2-aminopurine labeling were performed using the protocol reported previously. Briefly, MYCN G4 oligonucleotide with a 2-AP substitution at either A11 or A18 position was annealed by heating the sample to 95° C. for 5 min and cooling down to RT slowly. The oligonucleotide with folded structure was diluted to 10 μM in Tris buffer (10 mM Tris, pH7.0, 100 mM KCl, 0.005% Tween 20) and prepared in a black 96-well plate (Costar) in triplicate as designed. Small molecules were diluted in DMSO to obtain a series of solutions with concentrations ranging from 0.1 to 5 mM, and then diluted by 20 times added into the plate (5% DMSO final concentration). The final concentration of 2-AP DNA was 1 μM in the well plate. To obtain the background fluorescence, small molecule solutions without DNA were also prepared in the same plate. After incubation for 30 min at RT, the plate was briefly centrifuged and scanned in Synergy Mx microplate reader (BioTek) with Ex 310 nm/Em 365 nm. Fluorescence signals were calculated by averaging the intensities in triplicate wells after subtracting the references. Finally, the binding signals were normalized and the KD value was determined by fitting the curve using a nonlinear sigmoidal dose-response model with a variable slope in GraphPad Prism 8.3.1 software.

NBEB cells = test: Incucyte live cell imaging of cell confluence; type: cell-based; conditions: 4-day measurement after single treatment, 0-45 μM
Experimental: Cell lines and cell culture. The neuroblastoma cell line NBEB (Single Copy MYCN) cells were used to evaluate the efficacy of the MYCN/MYCNOs G-quadruplex binding molecules. NBEB came from stocks in Pediatric Oncology Branch, National Cancer Institute, National Institutes of Health, Bethesda, MD and have been […]. Cells were cultured in RPMI-1640, supplemented with 10% FBS (Atlanta Biologicals, Atlanta), 2 mM glutamine (Life Technologies, New York), and antibiotics (penicillin 100 μg/mL, streptomycin 100 μg/mL; Life Technologies, New York) at 37° C. in a 5% CO2 incubator.
To examine the effects of G4-binding compounds on NBEB cells, live-cell imaging was performed using an Incucyte interface (described below). […] To examine the time-dependent decrease in MYCNOs expression, cells were treated with 22.5 μM and 45 μM MY-8 and analyzed at various times (0, 4, 24, 48, 72 and 96 h). To validate cell viability, a Trypan Blue exclusion test was performed following treatment at 48 h and 96 h post treatment and the proportion of live versus dead cells was calculated using a hemocytometer.
Incucyte live cell imaging system. […] Incucyte measured cell confluence from pre-defined processing definitions for NBEB NB cells. […]

[1] = tested on: MYCNOS001 and MYCNOS002 transcripts; test: qRT-PCR of MYCNOS transcripts in NBEB cells; type: cell-based
Experimental: To examine the effects of G4-binding compounds on NBEB cells, live-cell imaging was performed using an Incucyte interface (described below). NBEB (5K/well), cells were seeded into 96-well plates in triplicate, treated with compound MY-8 at various concentrations (0-45 μM), and cultured until control wells reached confluence. […] To validate cell viability, a Trypan Blue exclusion test was performed following treatment at 48 h and 96 h post treatment and the proportion of live versus dead cells was calculated using a hemocytometer.
Quantitative RT-PCR. Total RNA was extracted from NBEB cells according to manufacturer's instructions (RNeasy Plus Mini Extraction kit (#74134) (Qiagen, CA). RNA (1 μg) was reverse transcribed into cDNA using the cDNA synthesis High-Capacity RNA-to-cDNA™ Kit. Quantitative PCR was performed using Fast SYBR™ Green Master Mix according to the manufacturer's protocol. Beta-actin was used as a housekeeping gene. Relative expression was calculated using the 2(−ΔCt) method. The qPCR primer sequences can be found in supplementary materials.

[2] = NBEB cells, 24, 36, 48 h, higher concentrations

SMILES: COc1ccc(-c2noc(-c3ccc(NCCCNc4c5ccc(Cl)cc5nc5ccc(OC)cc45)nn3)n2)cc1 [B33, N^1-(6-chloro-2-methoxyacridin-9-yl)-N^3-(6-(3-(4-methoxyphenyl)-1,2,4-oxadiazol-5-yl)pyridazin-3-yl)propane-1,3-diamine]
fold weaker than MYCN HP-G4 (BCL2 HP-G4; BCL2 HP-G4 vs MYCN HP-G4): ~4 times | Kd (BCL2 HP-G4; FIA): 258 ± 39 nM | Kd (PIM1-form2 HP-G4): 1100 ± 400 nM | Kd (MYCN hairpin-G4 DNA): 66 ± 7 nM

SMILES: CCCN1CCN(c2nnc(-n3cccc3CNCCCN3CCCCCC3)s2)CC1 [Compound 1]
effect of excess tRNA on binding affinity (MYCN G4 DNA with 10×tRNA): no effect

effect of excess tRNA on binding affinity (MYCN G4 DNA with 10×tRNA): no effect
SMILES: COc1ccc(-c2noc(-c3ccc(NCCCN4CCCC4)nn3)n2)cc1 [MY-1, 6-(3-(4-methoxyphenyl)-1,2,4-oxadiazol-5-yl)-N-(3-(pyrrolidin-1-yl)propyl)pyridazin-3-amine]

SMILES: COc1ccc(-c2noc(-c3ccc(NCCCN4CCCCCC4)nn3)n2)cc1 [MY-8, N-(3-(azepan-1-yl)propyl)-6-(3-(4-methoxyphenyl)-1,2,4-oxadiazol-5-yl)pyridazin-3-amine]
NBEB cell growth (cell confluence) (NBEB cells): significant inhibition of NBEB cell growth | MYCNOS001 mRNA level [1, 2]: clear decreases of mRNA level | MYCNOS002 mRNA level [1, 2]: clear decreases of mRNA level | onset of MYCNOS002 decrease ([1]; NBEB cells, time course): decreased as early as 24 h
